The source of these data is patent US12411128B2, “Methods and apparatuses for prediction of mechanism of activity of compounds” (The Regents of the University of California, priority 2017, dated 2025).

The test system of series [1] is human ventricular cardiac tissue strips (hvCTS). In words: class relationship metrics: binary SVM with Gaussian fit between 'unknown' and library compound. Format: cell-based. The following applies: for Estimated Similar Concentration of digoxin: ouabain at 1.0 × 10^−5 M. How it is done: Once the drug classes were predicted, the concentrations of library compounds that induced the most similar cardioactive effects as the ‘unknown’ compounds were computed (FIG. 7; protocol in Example 5).
The concentration of a library compound that induced the most similar cardioactive effects as the compound of interest was determined. This class relationship metric was computed by first selecting the compound of interest at a desired concentration and performing a series of binary SVM among the tested range of a library compound. For each concentration of the library compound, the closer the SVM accuracy was to 50%, the more defined boundaries of the compounds overlapped and the more similar the cardioactive effects were. This relationship between SVM accuracy and tested concentration range was presumed to behave in a Gaussian manner with the centroid representing the concentration that would elicit the most similar effects. The Gaussian fit was set with 50% as the lower limit and the highest achieved SVM accuracy as the upper limit. If the original SVM accuracies reached the 50% mark and remained around this value for subsequent concentrations, only the first concentration to reach the 50% was included in the fit to accurately model one side of the Gaussian curve.

Series [2] shares this test system. The series is described as follows: binary SVM cardioactivity index from hvCTS twitch force readouts. It counts as cell-based. The following applies: for cardioactivity versus vehicle-treated hvCTS by binary SVM accuracy: over tested concentration range, Student's t-test with Bonferroni correction. As to the method:
The binary SVM is capable of summarizing all parameters and providing a simple metric that expresses a compound's degree of cardioactivity at a given dosage (Lee et al., 2015). […] As a result, a SVM accuracy metric is calculated to reflect the machine's ability to identify a cardioactive effect (e.g. 75% accuracy means that out of 100 data points, the machine could correctly classify 75 of them). To account for variations within the data set, multiple runs are performed to calculate the mean SVM accuracy. […] Prominent cardioactive effects allow the space between the data from treated and control conditions to become more distinguishable, leading to a higher SVM accuracy with 100% being the maximum.
Although the hvCTSs (FIG. 3, A) were examined under temperature-controlled conditions, there was an observable drift in contractile behavior of the vehicle-treated hvCTSs. For example, the relative measured maximum developed force increased for all pacing frequencies by a cumulative average of 16.96±0.83% upon the ninth serial addition (FIG. 3, B). To account and normalize for baseline drift, each drug condition was compared to its respective vehicle condition via binary SVM (e.g., measurements of the 7th serial drug addition were compared to those of vehicle-treated hvCTSs at the 7th serial addition). To establish a benchmark of non-cardioactivity, a subset of the vehicle-treated hvCTSs were randomly selected to model a non-cardioactive compound. Binary SVM was then performed between the subset and a corresponding control group of equal size (n).
Human ventricular cardiomyocytes were differentiated from a hES2 stem cell line with a Wnt inhibitor-based protocol as previously described (Weng et al., 2014). Human ventricular cardiac tissue strips (hvCTS) were then formed by mixing cardiomyocytes (100 k cells per strip) at 14-16 days post differentiation with a solution of bovine collagen I (2 mg/mL), Matrigel (0.9 mg/mL), and human foreskin fibroblasts (100 k cells per strip) as previously described (Turnbull et al., 2014). The cell-matrix solution (100 uL per tissue strip) was injected into a custom PDMS force-sensing bioreactor device and placed in an incubator (37° C. and 5% CO2). Formed hvCTSs were fed DMEM with 10% new born calf serum, 1% penicillin-streptomycin and 0.1% amphotericin B. The PDMS device contains two flexible vertical end-posts to which the tissue anchors, causing the posts to deflect as the tissue beats. Contractile force measurements were captured with a high speed (100 fps) CCD camera while custom LabVIEW software tracked the centroid movement of the flexible post tips. Force was converted from the deflection of the PDMS posts by an elastic beam bending equation (Serrao et al., 2012). […]

The test system is the same in series [3]. In words: individual contractile force parameters of electrically paced hvCTS. The note with it: for change of duration of relaxation phase / change of max force: increasing concentration up to 10^−4 M (100 μM). An excerpt: Each of the compounds, with the exception of aspirin, belonged to one of five classes with each class comprising a minimum of two compounds. Aspirin functioned as a reference for a cardiac-neutral compound. […] The parameters include: • 1. Desired pacing frequency. • 2. Captured pacing frequency. • 3. Max force generated (amplitude). • 4. […] Max change of force over time ([…]F/[…]t) of contraction phase. • 9. Max change of force over time ([…]F/[…]t) of relaxation phase. • 10. Duration of rise from 50% cutoff to max force. • 11. Duration of decline from max force to 50% cutoff. • 12. Area under the curve of rise from 50% cutoff to max force. • 13. Area under the curve of decline from max force to 50% cutoff. • 14. […] Area under the curve of rise from 50% cutoff to max force. • 17. Area under the curve of decline from max force to 50% cutoff.
The cell-matrix solution (100 uL per tissue strip) was injected into a custom PDMS force-sensing bioreactor device and placed in an incubator (37° C. and 5% CO2). Formed hvCTSs were fed DMEM with 10% new born calf serum, 1% penicillin-streptomycin and 0.1% amphotericin B. The PDMS device contains two flexible vertical end-posts to which the tissue anchors, causing the posts to deflect as the tissue beats. Contractile force measurements were captured with a high speed (100 fps) CCD camera while custom LabVIEW software tracked the centroid movement of the flexible post tips. […] A custom MATLAB script was used to calculate 17 parameters that described the overall shape of the force traces for each contractile event (FIG. 1). Each contraction was regarded as an individual data point for the machine learning analysis.
After 7-8 days post tissue formation, hvCTS were exposed to drugs for pharmacodynamic analysis. Flecainide, lisinopril, norepinephrine and ramipril were provided by Pfizer, while all other compounds were purchased form Sigma-Aldrich. Compounds were initially resuspended in DMSO and subsequently diluted in water for final concentrations composed of less than 0.1% (vol/vol) DMSO. The PDMS device containing the hvCTS was placed onto a heated stage (37° C.) under a dissecting microscope. Before either vehicle or drug addition, the media was replaced with DMEM containing high glucose (4.5 g/L) and HEPES without phenol red. Drug doses were added to a tissue in consecutively increasing manner up to 10 concentrations with 3 minutes in between measurements. Vehicle doses containing only water were applied similarly. A pulse stimulator (AMPI Master-9) connected to platinum wires electrically paced the hvCTS with a monophasic electric field of 5 V/cm with a 10 ms pulse duration.
SVM accuracies of strips exposed to a drug condition were compared to those of the non-cardioactive benchmark by using Student's t-test (desired a value of 0.05) with a Bonferroni correction (m, number of tests or hypotheses, was dependent on the number of drug additions in a screen). […] The Bonferroni correction was also applied when examining changes in specific parameters.

For `COCC(=O)O[C@]1(CCN(C)CCCc2nc3ccccc3[nH]2)CCc2cc(F)ccc2[C@@H]1C(C)C` [Mibefradil], the “Estimated Similar Concentration of nifedipine” value in series [1] (mibefradil at 3.0 × 10^−6 M, centroid of Gaussian fit) is “Nifedipine (1.28 × 10^−7) M”.
Consider `CC(=O)Oc1ccccc1C(=O)O` [Aspirin], for which the “SVM accuracy, average among all serial additions” value in series [2] (binary SVM vs vehicle-treated hvCTS, 10 nM to 100 μM, n=6) is reported as 52.85±1.77%. Besides, the “cardioactivity versus vehicle-treated hvCTS by binary SVM accuracy” value in series [2] was “non-cardioactivity”.
For the compound `COc1cc(N)c(Cl)cc1C(=O)NC1CCN(CCCOc2ccc(F)cc2)CC1OC` (stereo not shown) [Cisapride], the “Estimated Similar Concentration of flecainide” value in series [1] (cisapride at 1.0 × 10^−4 M, centroid of Gaussian fit) is on record as “Flecainide (1.03 × 10^−5) M”. In addition, in series [3] (paced at 0.5 Hz), the “change of duration of relaxation phase” value is on record as “increased” and the “change of max force” value is “decreased”.
For the compound `CC(C)NCC(O)c1ccc(O)c(O)c1` (stereo not shown) [Isoproterenol], the “decrease of duration of the relaxation phase (time from maximum developed force to 95% cutoff)” value in series [3] (10 μM) is 22.19±19.35%. In addition, in series [3] (10 μM, paced at 0.5 Hz), the “increase in maximum developed force” value is 10.42±16.23%. Also, in series [3] (paced at 0.5 Hz, 3.0×10^−7 to 10^−5 M, n=10), the “duration of the relaxation phase versus the vehicle study (lusitropic effect)” value is “decreased significantly”. Besides, the inotropic effect result in series [3] (paced hvCTS (nifedipine 1 Hz; isoproterenol 10 μM, 0.5 Hz)) is reported as “negligible inotropic effects”.
As to `C[C@H]1O[C@@H](O[C@H]2[C@@H](O)C[C@H](O[C@H]3[C@@H](O)C[C@H](O[C@H]4CC[C@@]5(C)[C@H](CC[C@@H]6[C@@H]5C[C@@H](O)[C@]5(C)[C@@H](C7=CC(=O)OC7)CC[C@]65O)C4)O[C@@H]3C)O[C@@H]2C)C[C@H](O)[C@@H]1O` [Digoxin], in series [3] (paced at 0.5 Hz), the “change of duration of relaxation phase” value is “increase in duration of relaxation phase” and the “change of max force” value is on record as “decrease in max force”.
On to `NC[C@H](O)c1ccc(O)c(O)c1` [Norepinephrine], for which, in series [1] (norepinephrine at 1.0 × 10^−5 M, centroid of Gaussian fit), the “Estimated Similar Concentration of isoproterenol” value is listed as “(1.44 × 10^−6) M”.
Regarding `NCCCC[C@H](N[C@@H](CCc1ccccc1)C(=O)O)C(=O)N1CCC[C@H]1C(=O)O` [Lisinopril], in series [2], the “cardioactivity versus vehicle-treated hvCTS by binary SVM accuracy” value is “did not have detectable cardioactive effects”.
For the compound `CCOC(=O)[C@H](CCc1ccccc1)N[C@@H](C)C(=O)N1[C@H](C(=O)O)C[C@@H]2CCC[C@@H]21` [Ramipril], in series [2], the “cardioactivity versus vehicle-treated hvCTS by binary SVM accuracy” value was “did not have detectable cardioactive effects”.
Turning to `C[C@@H]1O[C@@H](O[C@H]2C[C@@H](O)[C@]3(CO)[C@H]4[C@H](O)C[C@]5(C)[C@@H](C6=CC(=O)OC6)CC[C@]5(O)[C@@H]4CC[C@]3(O)C2)[C@H](O)[C@H](O)[C@H]1O` [Ouabain], the “fold lower concentration than digoxin to achieve the same level of cardioactivity” value in series [1] (ouabain 1.0×10^−5 M vs digoxin 5.35×10^−5 M) is listed as “approximately 5 fold”. Further, the “Estimated Similar Concentration of digoxin” value in series [1] (centroid of Gaussian fit) was “Digoxin (5.35 × 10^−5) M”; in series [1] (centroid of Gaussian fit, listed as ouabain), 53.5 µM. In series [3] (100 μM), the “treated strips that stopped beating at all pacing frequencies” value is recorded as 4 of the 10.
